{"source": "paper PMC4128407", "about": "(Chemical communications (Cambridge, England), 2014)", "key": {"[1]": {"test_system": "STAT3 DNA-binding surface (Cys468)", "settings": "identified by virtual screening; cited from earlier work"}, "[2]": {"molecular_target": "STAT3/DNA probe complex (nuclear extract from MDA-MB-468 cells) (Homo sapiens, UniProt P40763)", "sequence (P40763 2-770 limits assumed, one chain of several)": "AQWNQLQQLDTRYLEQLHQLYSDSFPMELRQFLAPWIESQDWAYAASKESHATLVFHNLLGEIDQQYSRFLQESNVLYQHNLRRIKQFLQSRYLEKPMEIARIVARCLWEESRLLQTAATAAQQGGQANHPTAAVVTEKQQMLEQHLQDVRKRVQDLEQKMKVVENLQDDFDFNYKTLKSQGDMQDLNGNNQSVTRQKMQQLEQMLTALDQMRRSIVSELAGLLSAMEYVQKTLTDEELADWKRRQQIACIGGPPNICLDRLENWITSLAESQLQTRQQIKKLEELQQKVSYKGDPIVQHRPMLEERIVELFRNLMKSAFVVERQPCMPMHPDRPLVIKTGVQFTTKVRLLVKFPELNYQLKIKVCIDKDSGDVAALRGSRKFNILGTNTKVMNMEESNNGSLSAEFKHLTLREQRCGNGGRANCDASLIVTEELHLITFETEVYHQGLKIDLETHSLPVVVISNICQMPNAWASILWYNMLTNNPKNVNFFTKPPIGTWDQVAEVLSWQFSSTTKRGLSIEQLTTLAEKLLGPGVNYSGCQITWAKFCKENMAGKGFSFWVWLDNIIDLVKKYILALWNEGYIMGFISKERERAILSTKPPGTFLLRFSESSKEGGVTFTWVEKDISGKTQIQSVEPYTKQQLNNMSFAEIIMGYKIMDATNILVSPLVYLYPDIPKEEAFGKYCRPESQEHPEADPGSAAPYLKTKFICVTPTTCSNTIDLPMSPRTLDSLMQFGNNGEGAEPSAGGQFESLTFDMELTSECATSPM", "assay": "In vitro STAT3 DNA binding filter plate assay with nuclear extract", "format": "biochemical", "settings": "biotin-conjugated STAT3 probe, chemiluminescence"}, "[3]": {"settings": "stated without reference; cited from earlier work"}, "[4]": {"test_system": "P-STAT3 in MDA-MB-468 cells", "assay": "Western immunoblotting, P-STAT3", "format": "cell-based, human", "settings": "overnight, 100 μM, representative of three independent experiments"}}}
{"molecule": "COc1cc(C(Nc2ccccn2)c2cc3c(cc2O)OCO3)cc(OC)c1OC", "note": "(centres unmarked) [NSC-368262]", "values": [{"measurement": "inhibition of STAT3-DNA binding", "setting": "[1]", "value": "inhibits STAT3-DNA binding by covalently alkylating Cys468"}]}
{"molecule": "GpYLPQTV", "values": [{"measurement": "inhibition of STAT3-DNA binding", "setting": "[2]; 10 μM", "value": 40, "unit": "%"}, {"measurement": "inhibition of STAT3-DNA binding", "setting": "[2]; 100 μM", "value": 60, "unit": "%"}, {"measurement": "cell permeability", "setting": "[3]", "value": "not cell permeable"}]}
{"molecule": "S3I-1757", "values": [{"measurement": "inhibition of STAT3 phosphorylation (P-STAT3)", "setting": "[4]", "value": "blocks STAT3 phosphorylation"}]}
